Test results: the NIST ThermoML archive (doi:10.1021/je050367p)
Numbers after ± are expanded uncertainties.

Assays:
[1] = refractive index (Na D-line) (dimensionless); xn = mol fraction of the nth substance listed; settings: 100.8 kPa, Liquid, Standard Abbe refractometry
[2] = xn = mol fraction of the nth substance listed; settings: 100.5 kPa, Liquid; for viscosity: Capillary tube (Ostwald / Ubbelohde) method

CC(C)OC(C)C [diisopropyl ether] + CCO
Settings	mass density, 288.15 K [kg/m3]	mass density, 298.15 K [kg/m3]	mass density, 308.15 K [kg/m3]	refractive index, 288.15 K	refractive index, 298.15 K	refractive index, 308.15 K	viscosity, 288.15 K [mPa·s]	viscosity, 298.15 K [mPa·s]	viscosity, 308.15 K [mPa·s]
[1], x1 = 0.05	–	–	–	1.36501 ± 0.00031	1.36077 ± 0.00031	1.35646 ± 0.00031	–	–	–
[1], x1 = 0.1	–	–	–	1.36653 ± 0.00031	1.3621 ± 0.00031	1.35763 ± 0.00031	–	–	–
[1], x1 = 0.15	–	–	–	1.36768 ± 0.00031	1.3631 ± 0.00031	1.3585 ± 0.00031	–	–	–
[1], x1 = 0.2	–	–	–	1.3686 ± 0.00031	1.36392 ± 0.00031	1.35923 ± 0.00031	–	–	–
[1], x1 = 0.25	–	–	–	1.36935 ± 0.00031	1.36456 ± 0.00031	1.35977 ± 0.00031	–	–	–
[1], x1 = 0.3	–	–	–	1.36998 ± 0.00031	1.3651 ± 0.00031	1.36021 ± 0.00031	–	–	–
[1], x1 = 0.35	–	–	–	1.37047 ± 0.00031	1.3655 ± 0.00031	1.36052 ± 0.00031	–	–	–
[1], x1 = 0.4	–	–	–	1.37086 ± 0.00031	1.36582 ± 0.00031	1.36077 ± 0.00031	–	–	–
[1], x1 = 0.45	–	–	–	1.37117 ± 0.00031	1.36608 ± 0.00031	1.36093 ± 0.00031	–	–	–
[1], x1 = 0.5	–	–	–	1.3714 ± 0.00031	1.3663 ± 0.00031	1.36103 ± 0.00031	–	–	–
[1], x1 = 0.55	–	–	–	1.37159 ± 0.00031	1.36642 ± 0.00031	1.36107 ± 0.00031	–	–	–
[1], x1 = 0.6	–	–	–	1.37174 ± 0.00031	1.36648 ± 0.00031	1.36109 ± 0.00031	–	–	–
[1], x1 = 0.65	–	–	–	1.37183 ± 0.00031	1.36649 ± 0.00031	1.36108 ± 0.00031	–	–	–
[1], x1 = 0.7	–	–	–	1.37187 ± 0.00031	1.36646 ± 0.00031	1.36098 ± 0.00031	–	–	–
[1], x1 = 0.7499	–	–	–	1.37187 ± 0.00031	1.36638 ± 0.00031	1.36085 ± 0.00031	–	–	–
[1], x1 = 0.8	–	–	–	1.37181 ± 0.00031	1.36627 ± 0.00031	1.36068 ± 0.00031	–	–	–
[1], x1 = 0.85	–	–	–	1.37167 ± 0.00031	1.36611 ± 0.00031	1.36044 ± 0.00031	–	–	–
[1], x1 = 0.9	–	–	–	1.3715 ± 0.00031	1.36588 ± 0.00031	1.36019 ± 0.00031	–	–	–
[1], x1 = 0.95	–	–	–	1.3712 ± 0.00032	1.36558 ± 0.00032	1.35986 ± 0.00032	–	–	–
[1], x1 = 1	–	–	–	1.37093 ± 0.00032	1.36524 ± 0.00032	1.35944 ± 0.00032	–	–	–
[2], x1 = 0.05	788.65 ± 0.23	779.96 ± 0.24	771.13 ± 0.25	–	–	–	1.176 ± 0.009	0.975 ± 0.008	0.814 ± 0.008
[2], x1 = 0.1	783.6 ± 0.24	774.78 ± 0.24	765.84 ± 0.25	–	–	–	1.046 ± 0.008	0.875 ± 0.008	0.736 ± 0.007
[2], x1 = 0.15	779.02 ± 0.24	770.05 ± 0.25	760.98 ± 0.25	–	–	–	0.946 ± 0.008	0.793 ± 0.008	0.67 ± 0.007
[2], x1 = 0.2	774.89 ± 0.24	765.79 ± 0.25	756.58 ± 0.26	–	–	–	0.85 ± 0.008	0.719 ± 0.007	0.612 ± 0.007
[2], x1 = 0.25	770.69 ± 0.25	761.45 ± 0.26	752.16 ± 0.26	–	–	–	0.771 ± 0.008	0.656 ± 0.007	0.562 ± 0.007
[2], x1 = 0.3	766.92 ± 0.25	757.63 ± 0.26	748.12 ± 0.27	–	–	–	0.705 ± 0.007	0.603 ± 0.007	0.52 ± 0.007
[2], x1 = 0.35	763.36 ± 0.26	753.93 ± 0.26	744.32 ± 0.27	–	–	–	0.648 ± 0.007	0.558 ± 0.007	0.484 ± 0.007
[2], x1 = 0.4	760.02 ± 0.26	750.47 ± 0.27	740.76 ± 0.27	–	–	–	0.599 ± 0.007	0.519 ± 0.007	0.453 ± 0.007
[2], x1 = 0.45	756.93 ± 0.26	747.28 ± 0.27	737.5 ± 0.28	–	–	–	0.558 ± 0.007	0.486 ± 0.007	0.426 ± 0.007
[2], x1 = 0.5	753.87 ± 0.27	744.13 ± 0.27	734.3 ± 0.28	–	–	–	0.523 ± 0.007	0.458 ± 0.007	0.403 ± 0.007
[2], x1 = 0.55	750.98 ± 0.27	741.18 ± 0.28	731.25 ± 0.28	–	–	–	0.493 ± 0.007	0.432 ± 0.007	0.383 ± 0.007
[2], x1 = 0.6	748.29 ± 0.27	738.39 ± 0.28	728.37 ± 0.29	–	–	–	0.468 ± 0.007	0.412 ± 0.007	0.365 ± 0.007
[2], x1 = 0.65	745.73 ± 0.27	735.73 ± 0.28	725.59 ± 0.29	–	–	–	0.444 ± 0.007	0.392 ± 0.007	0.35 ± 0.007
[2], x1 = 0.7	743.19 ± 0.28	733.1 ± 0.29	722.86 ± 0.29	–	–	–	0.423 ± 0.007	0.376 ± 0.007	0.336 ± 0.006
[2], x1 = 0.7499	740.73 ± 0.28	730.59 ± 0.29	720.23 ± 0.3	–	–	–	0.407 ± 0.007	0.362 ± 0.007	0.324 ± 0.006
[2], x1 = 0.8	738.4 ± 0.28	728.19 ± 0.29	717.79 ± 0.3	–	–	–	0.392 ± 0.007	0.35 ± 0.007	0.314 ± 0.006
[2], x1 = 0.85	735.94 ± 0.29	725.76 ± 0.29	715.31 ± 0.3	–	–	–	0.378 ± 0.007	0.339 ± 0.006	0.305 ± 0.006
[2], x1 = 0.9	733.6 ± 0.29	723.36 ± 0.3	712.89 ± 0.3	–	–	–	0.367 ± 0.007	0.329 ± 0.006	0.297 ± 0.006
[2], x1 = 0.95	731.15 ± 0.29	720.98 ± 0.3	710.53 ± 0.31	–	–	–	0.357 ± 0.007	0.32 ± 0.006	0.289 ± 0.006
[2], x1 = 1	729.09 ± 0.3	718.7 ± 0.3	708.12 ± 0.31	–	–	–	0.348 ± 0.007	0.313 ± 0.006	0.283 ± 0.006
